Measured values published in the NIST ThermoML archive (doi:10.1016/j.fluid.2018.10.006).

Conditions: Fluid (supercritical or subcritical phases), Coaxial cylinder method

CCCCCC [hexane]
Conditions | thermal conductivity [W/m/K]
513.09 K, 8500 kPa | 0.07722
513.09 K, 8790 kPa | 0.07758
513.09 K, 8830 kPa | 0.07762
513.09 K, 8882 kPa | 0.07769
513.09 K, 9275 kPa | 0.07816
513.09 K, 9297 kPa | 0.07816
513.09 K, 9300 kPa | 0.07816
513.09 K, 9344 kPa | 0.0782
513.09 K, 9367 kPa | 0.07824
513.09 K, 9700 kPa | 0.07864
513.09 K, 9900 kPa | 0.07883
513.09 K, 10000 kPa | 0.07894
515.56 K, 676 kPa | 0.03834
515.56 K, 700 kPa | 0.03843
515.56 K, 900 kPa | 0.03853
515.56 K, 1220 kPa | 0.039
515.56 K, 1221 kPa | 0.039
515.56 K, 1672 kPa | 0.04008
515.56 K, 1786 kPa | 0.04038
515.56 K, 1822 kPa | 0.04059
515.56 K, 2209 kPa | 0.0423
515.56 K, 2287 kPa | 0.04275
515.56 K, 2404 kPa | 0.04344
515.56 K, 2503 kPa | 0.04392
515.56 K, 2607 kPa | 0.04465
515.56 K, 2688 kPa | 0.04553
515.56 K, 2751 kPa | 0.04606
515.56 K, 2811 kPa | 0.04699
515.56 K, 2856 kPa | 0.04713
515.56 K, 2919 kPa | 0.04712
515.56 K, 2953 kPa | 0.04782
515.56 K, 2989 kPa | 0.04928
515.56 K, 3019 kPa | 0.05004
515.56 K, 3062 kPa | 0.05082
515.56 K, 3072 kPa | 0.05082
515.56 K, 3083 kPa | 0.05163
515.56 K, 3103 kPa | 0.05247
515.56 K, 3114 kPa | 0.05247
515.56 K, 3122 kPa | 0.05247
515.56 K, 3140 kPa | 0.05247
515.56 K, 3153 kPa | 0.05333
515.56 K, 3164 kPa | 0.05333
515.56 K, 3174 kPa | 0.05422
515.56 K, 3180 kPa | 0.05422
515.56 K, 3193 kPa | 0.05609
515.56 K, 3201 kPa | 0.05609
515.56 K, 3209 kPa | 0.05609
515.56 K, 3220 kPa | 0.05609
515.56 K, 3230 kPa | 0.05808
515.56 K, 3235 kPa | 0.05808
515.56 K, 3243 kPa | 0.05808
515.56 K, 3249 kPa | 0.05808
515.56 K, 3257 kPa | 0.06022
515.56 K, 3265 kPa | 0.06022
515.56 K, 3270 kPa | 0.06022
515.56 K, 3275 kPa | 0.06022
515.56 K, 3283 kPa | 0.06205
515.56 K, 3293 kPa | 0.06205
515.56 K, 3301 kPa | 0.06374
515.56 K, 3309 kPa | 0.06474
515.56 K, 3316 kPa | 0.065
515.56 K, 3322 kPa | 0.06539
515.56 K, 3329 kPa | 0.06578
515.56 K, 3334 kPa | 0.06604
515.56 K, 3339 kPa | 0.06631
515.56 K, 3342 kPa | 0.06658
515.56 K, 3347 kPa | 0.06685
515.56 K, 3350 kPa | 0.06698
515.56 K, 3352 kPa | 0.06712
515.56 K, 3357 kPa | 0.06737
515.56 K, 3360 kPa | 0.06751
515.56 K, 3362 kPa | 0.06759
515.56 K, 3368 kPa | 0.06795
515.56 K, 3373 kPa | 0.06823
515.56 K, 3386 kPa | 0.06866
515.56 K, 3394 kPa | 0.06909
515.56 K, 3426 kPa | 0.06997
515.56 K, 3453 kPa | 0.06911
515.56 K, 3462 kPa | 0.06911
515.56 K, 3482 kPa | 0.06911
515.56 K, 3490 kPa | 0.06911
515.56 K, 3499 kPa | 0.06911
515.56 K, 3520 kPa | 0.06911
515.56 K, 3541 kPa | 0.06911
515.56 K, 3550 kPa | 0.06911
515.56 K, 3566 kPa | 0.06911
515.56 K, 3579 kPa | 0.06769
515.56 K, 3614 kPa | 0.06769
515.56 K, 3638 kPa | 0.06769
515.56 K, 3682 kPa | 0.06769
515.56 K, 3700 kPa | 0.06769
515.56 K, 3750 kPa | 0.06938
515.56 K, 3800 kPa | 0.06938
515.56 K, 3841 kPa | 0.06944
515.56 K, 3900 kPa | 0.0695
515.56 K, 3928 kPa | 0.06953
515.56 K, 3941 kPa | 0.06959
515.56 K, 3995 kPa | 0.06965
515.56 K, 4000 kPa | 0.06968
515.56 K, 4025 kPa | 0.06968
515.56 K, 4104 kPa | 0.06983
515.56 K, 4200 kPa | 0.07004
515.56 K, 4307 kPa | 0.07016
515.56 K, 4388 kPa | 0.07034
515.56 K, 4400 kPa | 0.0704
515.56 K, 4488 kPa | 0.07058
515.56 K, 4537 kPa | 0.07067
515.56 K, 4593 kPa | 0.0708
515.56 K, 4620 kPa | 0.07089
515.56 K, 4700 kPa | 0.07098
515.56 K, 4790 kPa | 0.07114
515.56 K, 4800 kPa | 0.07117
515.56 K, 4830 kPa | 0.07123
515.56 K, 4900 kPa | 0.07129
515.56 K, 5000 kPa | 0.07151
515.56 K, 5100 kPa | 0.07167
515.56 K, 5130 kPa | 0.0717
515.56 K, 5200 kPa | 0.07182
515.56 K, 5300 kPa | 0.07198
515.56 K, 5400 kPa | 0.07217
515.56 K, 5580 kPa | 0.07243
515.56 K, 5600 kPa | 0.07246
515.56 K, 5690 kPa | 0.07265
515.56 K, 5740 kPa | 0.07275
515.56 K, 5800 kPa | 0.07285
515.56 K, 5900 kPa | 0.07301
515.56 K, 6050 kPa | 0.07327
515.56 K, 6060 kPa | 0.07327
515.56 K, 6080 kPa | 0.0733
515.56 K, 6300 kPa | 0.07366
515.56 K, 6380 kPa | 0.0738
515.56 K, 6460 kPa | 0.07393
515.56 K, 6610 kPa | 0.07417
515.56 K, 6920 kPa | 0.07464
515.56 K, 6950 kPa | 0.07468
515.56 K, 7020 kPa | 0.07478
515.56 K, 7100 kPa | 0.07488
515.56 K, 7470 kPa | 0.0754
515.56 K, 7560 kPa | 0.07554
515.56 K, 7570 kPa | 0.07557
515.56 K, 7600 kPa | 0.0756
515.56 K, 7840 kPa | 0.07592
515.56 K, 7870 kPa | 0.07595
515.56 K, 7940 kPa | 0.07602
515.56 K, 8050 kPa | 0.07617
515.56 K, 8100 kPa | 0.0762
515.56 K, 8140 kPa | 0.07624
515.56 K, 8230 kPa | 0.07638
515.56 K, 8370 kPa | 0.07656
515.56 K, 8470 kPa | 0.07663
515.56 K, 8540 kPa | 0.0767
515.56 K, 8730 kPa | 0.07695
515.56 K, 8870 kPa | 0.07714
515.56 K, 9080 kPa | 0.07739
515.56 K, 9100 kPa | 0.07739
525.42 K, 1000 kPa | 0.0403
525.42 K, 1500 kPa | 0.0416
525.42 K, 1975 kPa | 0.04209
525.42 K, 1984 kPa | 0.04209
525.42 K, 2100 kPa | 0.04213
525.42 K, 2200 kPa | 0.04213
525.42 K, 2300 kPa | 0.04213
525.42 K, 2404 kPa | 0.04213
525.42 K, 2423 kPa | 0.04213
525.42 K, 2425 kPa | 0.04213
